Results reported in patent publication US8729055B2, “Ursolic acid derivative and pharmaceutical composition thereof” (Kaohsiung Medical University, priority 2010, dated 2014).

Legend:
[1] = system: rat peritoneal mast cells stimulated with compound 48/80; test: Experiment C: release of β-glucuronidase from rat peritoneal mast cells stimulated with compound 48/80; format: cell-based; conditions: 30 μM; given when 50% inhibition not reached
Protocol: (§1) This example illustrates the anti-inflammatory activities of compounds 5, 7-11, 20 and 21. The anti-inflammatory activities of compounds 5, 7-11, 20 and 21 are studied in vitro for their inhibitory effects on chemical mediators released from neutrophils, mast cells or macrophages of rat.
(§2) Please refer to Table 2, which illustrates the inhibitory effects of compounds 5, 7-11, 20 and 21 on the accumulation of NO2^− (Experiment A), superoxide anion formation (n mol/10^6 cells/30 min) from rat neutrophils stimulated with PMA (Experiment B), and the release of β-glucuronidase from rat peritoneal mast cells stimulated with compound 48/80 (Experiment C). In Table 2, when 50% inhibition could not be reached at the highest concentration, the percentage of inhibition at 30 μM is given.
In the Experiment C, Heparinized Tyrode's solution is injected into the peritoneal cavity of exsanguinated rat (Sprague-Dawley, 250-300 g). After abdominal massage, cells in the peritoneal fluid are harvested and then separated in 38% bovine serum albumin (BSA) in glucose-free Tyrode's solution. […] Fifteen min after the addition of compound 48/80 ([…]), β-glucuronidase (phenolphthalein-β-glucuronide as substrate, 550 nm) in the supernatant is determined. The total content of β-glucuronidase is measured after treatment of the cell suspension with Triton X-100, and the percentage release is calculated. […]

[2] = system: NTUB1 cells (human bladder cancer cell line); test: MTT cytotoxicity assay against NTUB1 cells; format: cell-based
Protocol: In the present embodiment, cell culture and MTT assay is used for cell viability/proliferation. NTUB1, a human bladder cancer cell line, is established from a high-grade bladder cancer. […] The cells are cultured at 37° C. in a humidified atmosphere containing 5% CO2. […] Briefly, the cells are plated at a density of 1800 cells/well in 96-well plates and incubated at 37° C. overnight before drug exposure. Cells are then cultured in the presence of graded concentrations of the test compound with or without various concentrations of cisplatin (Pharmacia & Upjohn, Milan, Italy) at 37° C. for 72 h. At the end of the culture period, 50 μL of MTT (2 mg/mL in PBS) is added to each well and allowed to react for 3 h. Following centrifugation of plates at 1000 g for 10 min, media are removed and 150 μL DMSO are added to each well. The proportions of surviving cells are determined by absorbance spectrometry at 540 nm using […]) microplate reader. The cell viability is expressed as a percentage to the viable cells of control culture condition. The IC50s of each group are calculated by the […] analysis and presented as mean±standard deviation (SD). […] In Table 1, data are presented as mean±SD (n=5). […] The control cells are treated with culture medium containing 0.1% DMSO. Cisplatin is used as a positive control.

accumulation of NO2− = test: Experiment A: accumulation of NO2− (Griess reaction); format: cell-based, rat; conditions: inhibition of accumulation of NO2−
Protocol: as §1, §2
In the Experiment A, Nitric oxide (NO) in the cell medium is determined by the Griess reaction, and N-(3-aminomethyl)benzylamide (1400 W) is used as a positive control.

[3] = system: microtubule assembly in NTUB1 cells; test: Microtubule assembly by indirect immunofluorescence staining in NTUB1 cells; format: cell-based, human; conditions: 10 nM taxol, FIG. 5(B)
Protocol: All inhibition of tubulin polymerization has been implicated in G2/M phase cell cycle arrest in various cancer cell lines. Accordingly, whether treatment of cells with 20 μM compound 23 for 48 h affects in vivo microtubular architecture is investigated in the present example. Microtubule assembly is analyzed by indirect immunofluorescence staining using an anti-tubulin antibody (Santa Cruz Biotechnology, Santa Cruz, Calif., USA).
NTUB1 cells plated on coverslips are treated with no compound as control, 10 nM taxol, 50 μM compound 23 for 24 h. After treatment, cells are fixed with 2% formaldehyde/PBS for 20 min, washed with PBS, and cold methanol (−20° C.) for 3 min. After washing with PBS, cells are added anti-α-tubulin monoclonal antibody (Sigma, Co) in PBS and incubated for 3 h at room temperature. Then cells are washed with PBS and reincubated with Rodamine-conjugated secondary antibody (Sigma, Co) in dark room for 1 h at room temperature. After being washed with PBS, coverslips are mounted with 80% glycerol in PBS and examined with Axioskop 2 plus fluorescence microscope.
Please refer to FIGS. 5(A) to 5(C), which are diagrams showing the effects of taxol and compound 23 on microtubule assembly, wherein the cellular microtubules are observed by Axioskop 2 plus fluorescence microscope.

IC50 (accumulation of NO2−) [µM]	SMILES	percentage of inhibition at 30 μM, C β-glucuronidase [1] [%]	IC50 ([2]; NTUB1 cells, MTT, 72 h, mean±SD (n=5)) [µM]	% of viability at the highest concentration ([2]; NTUB1 cells, given when 50% inhibition not reached at the highest concentration (30 μM)) [%]	cytotoxic activity against NTUB1 cells, in words ([2]; comparison with the parent compound, from Table 1)	effect on microtubule assembly [3]
15.6 ± 2.5	C=C(C)[C@@H]1CC[C@]2(C)[C@H](CC=C3[C@@H]4[C@@H](C)[C@H](C)CC[C@]4(C(=O)O)CC[C@]32C)[C@@]1(C)CCC(=O)OC [Compound 21, Methyl 3,4-seco-ursan-4(23), 12-dien-28-oic 3-oat]	29.3 ± 2.1	> 30	62.77	weakens cytotoxic activities	–
–	CC(=O)O[C@H]1C(=O)[C@@]2(C)[C@H]([C@H](OC(=O)c3ccccc3)[C@]3(O)C[C@H](OC(=O)[C@H](O)[C@@H](NC(=O)c4ccccc4)c4ccccc4)C(C)=C1C3(C)C)[C@]1(OC(C)=O)CO[C@@H]1C[C@@H]2O [taxol]	–	–	–	–	distinctive microtubule bundle
